The values that follow come from US20160213733A1, “CHARACTERIZATION OF RICE” (Phytoquest Limited, priority 2013, published 2016).

The test system of test [1] is digestive enzymes of rat intestinal acetone powder extract. The test is described as follows: Rat digestive enzyme assays, all activities measured. Type of test: biochemical. How it is done: (§1) Rat intestinal acetone powder extract was purchased from Sigma (11630 lot SLBB6071V) to give results more closely related to digestion. 100 mg of the acetone powder was mixed with 1 ml cold PBS homogenised, sonicated briefly and then spun at 12K rpm for 3 mins.

Test [2] relates to alpha-glucosidase activity of rat intestinal acetone powder extract. The test can be described thus: Rat digestive enzyme assay, PNP α-D-glucoside substrate. Type of test: biochemical. As for the experimental part:
as §1

The conditions of test [3]: in vivo; cited from earlier work.
Test [4] deals with rodent pancreatic cell. Conditions: rodent pancreatic cell studies; cited from earlier work.

As to `OC[C@H]1NCC[C@H](O)[C@H]1O` [3,4-diepi fagomine, 3,4-diepifagomine], the “inhibition of the digestive enzymes / activities measured (in words)” value in test [1] is “inhibited none of the activities measured”.
As for `OC[C@H]1NCC[C@@H](O)[C@@H]1O` [fagomine, 1,2-dideoxynojirimycin], the “inhibition of the alpha-glucosidase activity (in words)” value in test [2] is “inhibited”. In addition, in test [3], the “effective dose against health risks of excessive intake of fast-digestible carbohydrates” value is listed as 1 mg/kg and the “postprandial blood glucose (in words)” value is reported as “lowers postprandial blood glucose”. Besides, in test [4], the “glucose induced-insulin secretion (in words)” value is recorded as “potentiate glucose induced-insulin secretion”.
Turning to `OC[C@H]1NCC[C@H](O)[C@@H]1O` [3-epifagomine], the “inhibition of the digestive enzymes / activities measured (in words)” value in test [1] is “inhibited none of the activities measured”.
